The values below come from patent EP4219453A1 (Sichuan Kelun-Biotech Biopharmaceutical Co., Ltd., priority 2020, dated 2022).

One data set has as its target T1, TGFβR1 (Homo sapiens, UniProt P36897).
T1 sequence (P36897 34-503): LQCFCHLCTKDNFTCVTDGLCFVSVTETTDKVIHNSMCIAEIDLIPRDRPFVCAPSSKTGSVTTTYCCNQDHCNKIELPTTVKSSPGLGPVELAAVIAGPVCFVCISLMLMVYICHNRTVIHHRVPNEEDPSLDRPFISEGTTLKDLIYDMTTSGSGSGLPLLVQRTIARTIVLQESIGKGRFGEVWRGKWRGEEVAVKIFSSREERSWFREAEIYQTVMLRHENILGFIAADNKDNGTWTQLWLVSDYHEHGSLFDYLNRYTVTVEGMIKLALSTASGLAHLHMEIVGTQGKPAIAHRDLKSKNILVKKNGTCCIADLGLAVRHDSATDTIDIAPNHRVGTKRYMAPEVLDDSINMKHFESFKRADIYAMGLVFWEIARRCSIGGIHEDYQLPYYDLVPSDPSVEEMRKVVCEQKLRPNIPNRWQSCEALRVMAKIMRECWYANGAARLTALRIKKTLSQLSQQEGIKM
Nature of the data set: In vitro enzymatic activity inhibition test (TGFβR1), ADP-Glo Kinase Detection Kit. The conditions noted are these: calculated from percent inhibition at 1000 nM, 100 nM, 10 nM. The format is biochemical. Here is the method:
Test Example 1: In vitro enzymatic activity inhibition test (TGFβR1).
(§1) Experimental method: According to the instructions of ADP-Glo™ Kinase Detection Kit (Promega), the inhibitory effect of the compounds of the present invention on the enzymatic activity of TGFβR1 was determined, and the steps were as follows: TGFβR1 enzyme were pre-incubated with different concentrations of test compounds (1000 nM, 100 nM, 10 nM) at 30°C for 30 min, TGFβR1 peptide and adenosine triphosphate (ATP) were added to initiate the reaction. The incubation was performed at 30°C for 3 h, followed by an addition of ADP-Glo™ reagent and incubated at room temperature for 90 min, kinase detection reagent was then added. Chemiluminescence signal values were detected after incubation at room temperature for another 30 min.
When the percent inhibition rate was between 30% and 80%, the median inhibitory concentration (IC50) or range of the compound was calculated according to the following formula: IC50 = X × (1 - percent inhibition rate (%)) / percent inhibition rate (%), wherein X is the concentration of the compound at which the inhibition rate is between 30% and 80%.

For the next data set, the target named is T2, hERG (Homo sapiens, UniProt Q12809).
T2 construct: purchased ThermoFisher
Nature of the data set: Biochemical hERG inhibition test, Predictor hERG fluorescence polarization kit. The format is binding. The conditions noted are these: hERG cell membrane, competition with Tracer 1 nM, 10 µM and 1 µM test compound, 2 h. The method, then: Test Example 4: Biochemical hERG inhibition test
• 1. Test system: Kit: Predictor™ hERG fluorescence polarization detection kit (ThermoFisher), the kit contained the following components: positive control compound hERG potassium channel blocker E4031; hERG cell membrane; affinity tracer Tracer; and hERG buffer. • 2. Test parameters: hERG concentration: 1×; Tracer concentration: 1 nM; incubation time: 2 h; BMG PHERAstar FSFP. • 3.
Positive control group: 30 µM positive control compound E4031 was used to replace the test compound, and the experimental method was the same as that of the test group.
Blank control group: hERG buffer was used to replace the test compound without the addition of hERG cell membrane, and the experimental method was the same as that of the test group.
According to the data ratio, the percent inhibition rates (%) of the compounds of the present invention to hERG at different concentrations were calculated, and the ranges of the half inhibitory concentration (IC50) of the compounds were determined.

Data set [1] can be described thus: Pharmacokinetics (PK) study in Balb/c mice. The format is in vivo. The conditions noted are these: female Balb/c mice; for F: PO 10 mg/kg compared with IV 1 mg/kg. Here is the method:
Test Example 6: Pharmacokinetics (PK) study in Balb/c mice
The example compounds were administered to female Balb/c mice via intravenous injection (IV) and gastric perfusion (PO), respectively, and their pharmacokinetic properties were investigated. The administered doses for IV and PO were 1 mg/kg and 10 mg/kg, respectively. The solvent for IV was 5% DMSO + 5% Solutol (15-hydroxystearic acid polyethylene glycol ester) + 90% normal saline, the solvent for PO was 0.5% MC ([…] methylcellulose). Whole blood samples were collected at various time points after IV and PO administration, and subjected to EDTA-K2 anticoagulation before test.
Whole blood samples were processed by precipitating proteins and then subjected to LC-MS/MS analysis. The pharmacokinetic parameters were calculated by the non-compartmental model using WinNonlin 6.3 software, and the results were shown in Table 6 below. Table 6. Pharmacokinetic parameters of compounds in whole blood in mice

The target of the next data set is TGFβR2 (Homo sapiens, UniProt P37173). Nature of the data set: In vitro enzymatic activity inhibition test (TGFβR2), ADP-Glo Kinase Detection Kit. Format: biochemical. The conditions noted are these: MBP substrate, calculated from percent inhibition at 1000nM, 100nM, 10nM. Here is the method:
Test Example 2: In vitro enzymatic activity inhibition test (TGFβR2).
as §1, with “TGFβR2” for “TGFβR1”, “(1000nM, 100nM, 10nM)” for “(1000 nM, 100 nM, 10 nM)”, “myelin basic protein (MBP)” for “TGFβR1 peptide”, “The chemiluminescence” for “Chemiluminescence”
When the percent inhibition was between 30% and 80%, the median inhibitory concentration (IC50) or range of the compound was calculated according to the following formula: IC50 = X × (1 - percent inhibition rate (%)) / percent inhibition rate (%), wherein X is the concentration of the compound at which the inhibition rate is between 30% and 80%.

Where [2] appears, read: PO, 10 mg/kg, whole blood, listed as Example VI.
Where [3] appears, read: mouse, IV, 1 mg/kg, whole blood.
The mark [4] stands for this setting: mouse, IV, 1 mg/kg, whole blood, read-out: Cmax.
Setting [5] is: mouse, PO, 10 mg/kg, whole blood.
The mark [6] stands for this setting: mouse, PO, 10 mg/kg, whole blood, read-out: Cmax.

Several values for one entry are separate records, joined by “and”; a condition that tells them apart may be missing. Equal entries are not always repeated. Where two headings read alike, the source gives them in different places.

TGFβR2, sequence (P37173 23-567): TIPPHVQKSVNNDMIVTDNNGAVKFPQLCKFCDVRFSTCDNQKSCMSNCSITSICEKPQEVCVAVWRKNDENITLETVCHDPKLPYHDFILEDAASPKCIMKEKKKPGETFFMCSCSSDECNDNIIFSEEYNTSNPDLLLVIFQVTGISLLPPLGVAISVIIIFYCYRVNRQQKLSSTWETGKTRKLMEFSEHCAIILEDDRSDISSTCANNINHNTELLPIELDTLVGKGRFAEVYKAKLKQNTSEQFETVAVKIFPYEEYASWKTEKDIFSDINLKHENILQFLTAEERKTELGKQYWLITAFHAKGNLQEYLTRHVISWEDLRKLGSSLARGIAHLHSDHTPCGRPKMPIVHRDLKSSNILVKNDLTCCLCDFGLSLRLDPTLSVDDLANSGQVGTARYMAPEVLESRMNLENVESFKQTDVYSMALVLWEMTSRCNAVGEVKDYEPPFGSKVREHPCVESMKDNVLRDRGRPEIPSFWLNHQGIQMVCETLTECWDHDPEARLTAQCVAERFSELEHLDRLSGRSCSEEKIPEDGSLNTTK
T2 sequence (Q12809 whole entry): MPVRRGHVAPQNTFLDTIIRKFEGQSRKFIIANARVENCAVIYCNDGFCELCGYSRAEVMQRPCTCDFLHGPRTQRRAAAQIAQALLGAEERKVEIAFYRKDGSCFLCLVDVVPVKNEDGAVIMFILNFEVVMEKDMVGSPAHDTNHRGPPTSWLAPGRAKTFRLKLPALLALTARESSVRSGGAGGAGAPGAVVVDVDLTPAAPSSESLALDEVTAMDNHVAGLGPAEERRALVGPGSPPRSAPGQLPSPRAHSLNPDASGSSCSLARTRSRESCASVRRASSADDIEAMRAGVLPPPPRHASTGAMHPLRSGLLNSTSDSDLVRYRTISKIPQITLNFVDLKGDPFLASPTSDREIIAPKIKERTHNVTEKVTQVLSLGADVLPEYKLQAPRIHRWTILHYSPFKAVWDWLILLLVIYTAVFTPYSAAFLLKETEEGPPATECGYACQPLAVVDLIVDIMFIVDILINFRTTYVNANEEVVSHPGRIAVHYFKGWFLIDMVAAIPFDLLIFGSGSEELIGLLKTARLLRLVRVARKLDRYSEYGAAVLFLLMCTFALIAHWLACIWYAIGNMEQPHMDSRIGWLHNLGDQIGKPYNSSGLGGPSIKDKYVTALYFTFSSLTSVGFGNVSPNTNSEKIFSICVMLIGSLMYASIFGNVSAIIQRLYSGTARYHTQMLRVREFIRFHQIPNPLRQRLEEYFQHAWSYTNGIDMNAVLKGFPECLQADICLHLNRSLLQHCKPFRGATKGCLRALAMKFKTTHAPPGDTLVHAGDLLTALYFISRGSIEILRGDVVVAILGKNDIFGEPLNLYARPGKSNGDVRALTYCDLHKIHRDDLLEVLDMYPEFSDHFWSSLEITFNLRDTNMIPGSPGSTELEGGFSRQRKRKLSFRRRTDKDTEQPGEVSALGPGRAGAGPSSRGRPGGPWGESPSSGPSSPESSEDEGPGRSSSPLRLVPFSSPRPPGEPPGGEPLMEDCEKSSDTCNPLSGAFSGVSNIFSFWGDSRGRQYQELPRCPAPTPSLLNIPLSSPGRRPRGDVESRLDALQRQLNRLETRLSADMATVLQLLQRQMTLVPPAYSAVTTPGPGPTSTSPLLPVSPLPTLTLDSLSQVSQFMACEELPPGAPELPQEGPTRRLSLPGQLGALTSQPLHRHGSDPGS

As a reminder, the IC50 is the midpoint of a concentration-inhibition curve. Consider `Cc1cccc(-n2nc3c(c2-c2ccn4nccc4c2)CCC3)n1` [Example 4, 5-[2-(6-methylpyridin-2-yl)-2,4,5,6-tetrahydrocyclopenteno [c]pyrazol-3-yl]pyrazolo[1,5-a]pyridine], for which the IC50 on TGFβR1 was 12 ± 5.4 nM; on hERG, over 10000 nM.
In general, Cmax refers to the peak of the concentration-time curve. As to `Cc1cccc(-n2nc3c(c2-c2ccn4ncc(C(N)=O)c4c2)CCC3)n1` [Example 6, 5-[2-(6-methylpyridin-2-yl)-2,4,5,6-tetrahydrocyclopenteno[c]pyrazol-3-yl]pyrazolo[1,5-a]pyridine-3-carboxamide], the IC50 at TGFβR1 is 2.36 ± 0.68 nM; at hERG it was over 10000 nM. Also, the AUClast is 578 ng·h/mL and 578 ± 4 ng·h/mL in data set [1] (IV, 1 mg/kg, whole blood); 3586 ± 563 ng·h/mL in data set [1] (PO, 10 mg/kg, whole blood); 3586 ng·h/mL in data set [1] (setting [2]). Further, in data set [1] (IV, 1 mg/kg, whole blood), the Cl is 28.4 mL/min/kg and 28.4 ± 0.3 mL/min/kg. Besides, the Cmax in data set [1] (IV, 1 mg/kg, whole blood) was 1163 ng/mL and 1163 ± 58 ng/mL; in data set [1] (PO, 10 mg/kg, whole blood), 7440 ± 226 ng/mL; in data set [1] (setting [2]), 7440 ng/mL. The F is 61.4±9.5% in data set [1] and 61.4% in data set [1] (listed as Example VI). Further, the T1/2 in data set [1] (PO, 10 mg/kg, whole blood) turned out to be 27.6 ± 11.4 min; in data set [1] (setting [2]), 27.6 min.
In general, AUC(0-t) refers to exposure summed from dosing to a finite time, without extrapolation to infinity. Read a low AUC(0-t) as low exposure. A word on the clearance: it is the volume of plasma or blood freed of the substance per unit of time. Read a low clearance as a low capacity for elimination. The term half-life denotes the time in which the quantity being followed falls by half. As to `CNc1cc(-c2ccn3ncc(C(N)=O)c3c2)n(-c2cccc(C)n2)n1` [Example 8, 5-(3-(methylamino)-1-(6-methylpyridin-2-yl)-1H-pyrazol-5-yl)pyrazolo[1,5-a]pyridine-3-carboxamide], the IC50 was 8.27 ± 0.11 nM on TGFβR1, over 1000 nM at TGFβR2 and over 10000 nM at hERG. In data set [1], the F is 98.1% and 98.1±15.0%. The compound further returned a T1/2 in data set [1] (PO, 10 mg/kg, whole blood) of 108 ± 21 min. For the same compound, the AUC(0-t) was found to be 458 ng·h/mL in data set [1] (setting [3]) and 4360 ng·h/mL in data set [1] (setting [5]). This compound came in with a clearance in data set [1] (setting [3]) of 35 mL/min/kg. The Cmax was found to be 917 ng/mL in data set [1] (setting [4]) and 6270 ng/mL in data set [1] (setting [6]). Further, the half-life in data set [1] (setting [5]) was 108 min.
Take `Cc1cccc(-n2nc(NC(C)c3ccc(F)cc3)cc2-c2ccn3ncc(C(N)=O)c3c2)n1` (stereo not shown) [Example 10, 5-(3-(1-(4-fluorophenyl)ethylamino)-1-(6-methylpyridin-2-yl)-1H-pyrazol-5-yl)pyridino[1,5-a]pyridine-3-carboxamide]: the figures for the IC50 on TGFβR1, at TGFβR2 and at hERG were 4.82 ± 0.51 nM, over 1000 nM and over 10000 nM, respectively.
Turning to `Cc1cccc(-n2nc(NCc3ccc(F)cc3)cc2-c2ccn3ncc(C(N)=O)c3c2)n1` [Example 11, 5-(3-(4-fluorobenzylamino)-1-(6-methylpyridin-2-yl)-1H-pyrazol-5-yl)pyrazolo[1,5-a]pyridine-3-carboxamide], the IC50 on TGFβR1 is 0.5 ± 0.21 nM; on TGFβR2, 593 ± 129 nM; on hERG, over 10000 nM.
For the compound `Cc1cccc(-n2nccc2-c2ccn3ncc(C(N)=O)c3c2)n1` [Example 12, 5-(1-(6-methylpyridin-2-yl)-1H-pyrazol-5-yl)pyrazolo[1,5-a]pyridine-3-carboxamide], the IC50 is 9.39 ± 2.15 nM on TGFβR1, over 1000 nM at TGFβR2 and over 10000 nM at hERG. In data set [1], the F was 52.1% and 52.1±2.6%. Besides, in data set [1] (PO, 10 mg/kg, whole blood), the T1/2 came to 31.2 ± 10.8 min. The figures for the AUC(0-t) in data set [1] (setting [3]) and in data set [1] (setting [5]) were 572 ng·h/mL and 3040 ng·h/mL, respectively. The clearance in data set [1] (setting [3]) was 29.3 mL/min/kg. Further, the Cmax in data set [1] (setting [4]) worked out at 862 ng/mL; in data set [1] (setting [6]), 5920 ng/mL. Further, in data set [1] (setting [5]), the half-life was 31.2 min.
